Target: Human recombinant DHX9 protein (Homo sapiens (Human), UniProt Q08211)
Assay: DHX9 ATPase assay (ADP-Glo)
Type: biochemical
Settings: for IC50: read-out: DHX9 Biochemical Inflection Point

Human recombinant DHX9 protein, sequence (Q08211 whole entry): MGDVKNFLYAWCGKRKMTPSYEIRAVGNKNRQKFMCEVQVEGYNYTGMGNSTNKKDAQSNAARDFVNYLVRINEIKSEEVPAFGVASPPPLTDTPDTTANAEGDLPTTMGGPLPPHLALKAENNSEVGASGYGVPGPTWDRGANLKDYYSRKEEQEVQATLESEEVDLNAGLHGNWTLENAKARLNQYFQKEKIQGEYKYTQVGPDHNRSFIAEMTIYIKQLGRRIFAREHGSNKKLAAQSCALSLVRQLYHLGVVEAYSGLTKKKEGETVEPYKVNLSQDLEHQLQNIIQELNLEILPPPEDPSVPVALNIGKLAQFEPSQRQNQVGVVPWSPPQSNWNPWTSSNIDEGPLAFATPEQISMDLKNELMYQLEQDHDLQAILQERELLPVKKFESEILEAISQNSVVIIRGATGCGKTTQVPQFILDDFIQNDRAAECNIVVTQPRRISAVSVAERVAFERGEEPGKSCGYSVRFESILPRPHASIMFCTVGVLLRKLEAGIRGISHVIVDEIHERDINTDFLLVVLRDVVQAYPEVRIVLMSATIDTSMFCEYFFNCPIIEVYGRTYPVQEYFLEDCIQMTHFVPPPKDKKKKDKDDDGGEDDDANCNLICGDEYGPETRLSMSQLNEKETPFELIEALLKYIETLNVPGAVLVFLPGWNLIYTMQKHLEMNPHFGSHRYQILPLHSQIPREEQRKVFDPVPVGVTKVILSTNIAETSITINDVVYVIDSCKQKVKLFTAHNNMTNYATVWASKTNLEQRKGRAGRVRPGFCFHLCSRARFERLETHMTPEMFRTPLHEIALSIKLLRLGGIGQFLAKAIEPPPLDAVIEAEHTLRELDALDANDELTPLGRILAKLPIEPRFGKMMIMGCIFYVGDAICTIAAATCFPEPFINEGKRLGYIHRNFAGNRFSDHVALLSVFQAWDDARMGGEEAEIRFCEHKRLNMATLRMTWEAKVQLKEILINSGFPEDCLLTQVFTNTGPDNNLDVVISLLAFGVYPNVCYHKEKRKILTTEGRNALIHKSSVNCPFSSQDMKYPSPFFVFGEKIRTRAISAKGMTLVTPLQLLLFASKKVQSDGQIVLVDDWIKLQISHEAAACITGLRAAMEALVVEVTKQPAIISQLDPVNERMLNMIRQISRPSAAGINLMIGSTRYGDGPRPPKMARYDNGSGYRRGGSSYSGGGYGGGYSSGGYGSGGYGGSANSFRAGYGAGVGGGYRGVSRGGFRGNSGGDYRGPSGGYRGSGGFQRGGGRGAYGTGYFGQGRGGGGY

Row | Structure (SMILES) | DHX9 Biochemical Max Inhibition | IC50 [nM]
1 | CS(=O)(=O)Nc1cc(Cl)cc(NC(=O)c2cccc3ccoc23)c1 [Example 135] | 44.6% | 1070
2 | Cn1cc(C(=O)Nc2cc(Cl)cc(NS(C)(=O)=O)c2)cc1-c1ccc(N2CCCC2)cn1 [Example 402] | 76.8 | 45.1
3 | Cc1sc(C(=O)Nc2cc(Cl)cc(NS(C)(=O)=O)c2)cc1-c1ncc(F)cn1 [Example 336] | 84% | 9.6
4 | COc1ccc(-n2cc(C(=O)Nc3cc(Cl)cc(NS(C)(=O)=O)c3)cc2C)nc1 [Example 391] | 78.5 | 8.9
5 | CC(C)n1cc(C(=O)Nc2cc(Cl)cc(NS(C)(=O)=O)c2)cc1-c1ncc(F)cn1 [Example 667] | 67.1 | 145
6 | CS(=O)(=O)Nc1cc(Br)cc(NC(=O)c2cnn(-c3cnccn3)c2)c1 [Example 40] | 60% | 15.7
7 | CS(=O)(=O)Nc1cc(Cl)cc(NC(=O)c2cc3ccc(F)cc3s2)c1 [Example 294] | 59% | 1610
8 | Cn1cc(C(=O)Nc2cc(Cl)cc(NS(C)(=O)=O)c2)nc1-c1ccccc1 [Example 155, N-(3-chloro-5-(methylsulfonamido)phenyl)-1-methyl-2-phenyl-1H-imidazole-4-carboxamide] | 66.4% | 126
9 | Cc1sc(C(=O)Nc2cc(Cl)cc(NS(C)(=O)=O)c2)cc1-c1ncc(C(F)(F)F)cc1C#N [Example 367] | 63.5% | 55.9
10 | COc1cc2cc(C(=O)Nc3cc(Cl)cc(NS(C)(=O)=O)c3)sc2cc1OC [Example 291] | 59.7% | 144
11 | CS(=O)(=O)Nc1cc(Br)cc(NC(=O)c2cnn(-c3ccc(C#N)cn3)c2)c1 [Example 41] | 40.3% | 47.4
12 | Cc1cc(N2CCC(F)(F)CC2)cnc1-c1cc(C(=O)Nc2cc(Cl)cc(NS(C)(=O)=O)c2)cn1C [Example 600] | 79.3 | 41.6
13 | CS(=O)(=O)Nc1cc(Cl)cc(NC(=O)c2cc3ncccc3s2)c1 [Example 289] | 66.9% | 80.6
14 | COc1cc(F)cnc1-c1cc(C(=O)Nc2cc(Cl)cc(NS(C)(=O)=O)c2)cn1C [Example 568, N-(3-chloro-5-methanesulfonamidophenyl)-5-(5-fluoro-3-methoxypyridin-2-yl)-1-methylpyrrole-3-carboxamide] | 77.3 | 7.9
15 | Cn1cc(C(=O)Nc2cc(Cl)cc(NS(C)(=O)=O)c2)cc1-c1ncc(N2CC3(C2)CC(F)(F)C3)cc1F [Example 702] | 70.8 | 95.5
16 | CS(=O)(=O)Nc1cc(Cl)cc(NC(=O)c2cnn(-c3ncccc3-c3cncnc3)c2)c1 [Example 387] | 58.2% | 186
17 | Cn1nc(-c2ccccn2)cc1C(=O)Nc1cc(Cl)cc(NS(C)(=O)=O)c1 [Example 141] | 54.9% | 442
18 | CS(=O)(=O)Nc1cc(Cl)cc(NC(=O)c2cc(-c3ncc(OC4CN(S(C)(=O)=O)C4)cn3)n(CC(F)(F)F)c2)c1 [Example 651] | 59.6 | 70.6
19 | CS(=O)(=O)Nc1cc(Cl)cc(NC(=O)c2cc3cccnn3c2)c1 [Example 292] | 68.5% | 76

Row | Structure (SMILES) | DHX9 Biochemical Max Inhibition | IC50 [nM]
20 | CS(=O)(=O)Nc1cc(Cl)cc(NC(=O)c2cc(-c3ncc(F)cc3OCc3cncc(F)c3)cs2)c1 [Example 225] | 74.2% | 6.9
21 | Cn1cc(C(=O)Nc2cc(Cl)cc(NS(C)(=O)=O)c2)cc1-c1ncc(N2CCC(C(F)(F)F)CC2)cc1F [Example 472] | 60.9 | 211
22 | CS(=O)(=O)Nc1cc(Br)cc(NC(=O)c2cc(-c3cccnc3)cs2)c1 [Example 78] | 56.2% | 31.9
23 | CS(=O)(=O)Nc1cc(Br)cc(NC(=O)c2cc(-n3cccn3)cs2)c1 [Example 60] | 63% | 7.8
24 | Cc1cc(C(=O)Nc2cc(Cl)cc(NS(C)(=O)=O)c2)cn1-c1ncc(N2CC(F)(F)C2)cc1OC(C)C [Example 672] | 65.1 | 97.8
25 | Cc1sc(C(=O)Nc2cc(Cl)cc(NS(C)(=O)=O)c2)cc1-c1ncc(OC(C)CO)cn1 (stereo not shown) [Example 677] | 75.1 | 6.8
26 | CC(c1ccccc1)n1cc(C(=O)Nc2cc(Cl)cc(NS(C)(=O)=O)c2)cn1 (stereo not shown) [Example 142, N-(3-chloro-5-(methylsulfonamido)phenyl)-1-(1-phenylethyl)-1H-pyrazole-4-carboxamide] | 62% | 514
27 | CCS(=O)(=O)Nc1cc(F)cc(NC(=O)c2cc(-c3ccccn3)cs2)c1 [Example 113] | 65.9% | 40
28 | CS(=O)(=O)Nc1cc(Cl)cc(NC(=O)c2cnn(-c3ncccc3COc3cncc(F)c3)c2)c1 [Example 262] | 66.5% | 120
29 | CCS(=O)(=O)Nc1cc(F)cc(NC(=O)c2cc(-c3ccccc3)cs2)c1 [Example 74] | 57.7% | 255
30 | CS(=O)(=O)Nc1cc(Br)cc(NC(=O)c2cnn(-c3cccc(C(F)F)n3)c2)c1 [Example 56] | 48.8% | 197
31 | CCS(=O)(=O)Nc1cc(Cl)cc(NC(=O)c2cc(-c3ncc(F)cn3)cs2)c1 [Example 343] | 54.4% | 55.2
32 | Cn1cc(C(=O)Nc2cc(Cl)cc(NS(C)(=O)=O)c2)cc1-c1ccc(N2CCC(F)(F)C2)cn1 [Example 527] | 65.3 | 42.4
33 | Cc1cc(C(=O)Nc2cc(Cl)cc(NS(C)(=O)=O)c2)cn1-c1ncc(N2CC(F)(F)C2)cc1OCC(F)(F)F [Example 708] | 73 | 69.1
34 | Cc1sc(C(=O)Nc2cc(Cl)cc(NS(C)(=O)=O)c2)cc1-c1ncc(F)cc1N1CCC2(CC1)CC2 [Example 507] | 52.9 | 1510
35 | COc1cnc(-c2cc(C(=O)Nc3cc(Cl)cc(NS(C)(=O)=O)c3)sc2C)c(Cl)c1 [Example 364] | 79.8% | 15.6
36 | CS(=O)(=O)Nc1cc(Cl)cc(NC(=O)c2cnn(-c3ncccc3OCc3cncnc3)c2)c1 [Example 188] | 66.2% | 18.8
37 | CS(=O)(=O)Nc1cc(Cl)cc(NC(=O)c2cnn(-c3ncccc3OCc3ccccn3)c2)c1 [Example 63] | 66.2% | 83.9
38 | CS(=O)(=O)Nc1cc(Cl)cc(NC(=O)c2cc(C(F)(F)F)n(-c3ccc(F)cn3)c2)c1 [Example 267] | 66.4% | 248

Row | Structure (SMILES) | DHX9 Biochemical Max Inhibition | IC50 [nM]
39 | Cc1sc(C(=O)Nc2cc(Cl)cc(NS(C)(=O)=O)c2)cc1N1C(=O)N(C)C(C)(c2ccccn2)C1=O (stereo not shown) [Example 660] | 67.1 | 2120
40 | Cc1sc(C(=O)Nc2cc(Cl)cc(NS(C)(=O)=O)c2)cc1-c1ncc(C(F)(F)F)cn1 [Example 357] | 91.7% | 85.6
41 | Cn1cc(C(=O)Nc2cc(Cl)cc(NS(C)(=O)=O)c2)cc1-c1ccc(N2CC(F)(F)C2)cn1 [Example 595, N-(3-chloro-5-methanesulfonamidophenyl)-5-[5-(3,3-difluoroazetidin-1-yl)pyridin-2-yl]-1-methyl-1H-pyrrole-3-carboxamide] | 69.35 | 17.5
42 | Cc1cccc(OCc2cccc(F)c2)c1-n1cc(C(=O)Nc2cc(Cl)cc(NS(C)(=O)=O)c2)cn1 [Example 255] | 75.8% | 72.4
43 | Cc1cc(N2CC(F)(F)C2)cnc1-c1cc(C(=O)Nc2cc(Cl)cc(NS(C)(=O)=O)c2)sc1C [Example 537] | 63 | 20.8
44 | Cn1cc(C(=O)Nc2cc(Cl)cc(NS(C)(=O)=O)c2)cc1-c1ncc(N2CC(F)(F)C2)cc1OCc1cnco1 [Example 733] | 61.3 | 21.8
45 | Cc1sc(C(=O)Nc2cc(Br)cc(NS(C)(=N)=O)c2)cc1-c1ccccn1 (stereo not shown) [Example 123] | 72.8% | 14.8
46 | CS(=O)(=O)Nc1cc(Cl)cc(NC(=O)c2cc(-c3ccc(N4CC(F)(F)C4)cn3)cs2)c1 [Example 487] | 64.3 | 25.3
47 | Cc1cccc(O)c1-c1csc(C(=O)Nc2cc(Br)cc(NS(C)(=O)=O)c2)c1 [Example 19] | 53.5% | 115
48 | Cc1cc(C(=O)Nc2cc(Cl)cc(NS(C)(=O)=O)c2)cn1-c1ccc(Cl)cn1 [Example 389] | 82.3% | 19.5
49 | CS(=O)(=O)Nc1cc(Cl)cc(NC(=O)c2cnn(-c3ncccc3OCc3ccc(F)cc3)c2)c1 [Example 69] | 62.3% | 113
50 | Cc1cc(C(=O)Nc2cc(Cl)cc(NS(C)(=O)=O)c2)cn1-c1ncccc1O [Example 281] | 75.7% | 28
51 | CS(=O)(=O)Nc1cc(Cl)cc(NC(=O)c2cnn(-c3ncc(F)cc3OCc3cccc(F)c3)c2)c1 [Example 202] | 72.3% | 12.7
52 | COc1cnn(-c2cc(C(=O)Nc3cc(Cl)cc(NS(C)(=O)=O)c3)sc2C)c1 [Example 436] | 81.4 | 15.7
53 | CCS(=O)(=O)Nc1cc(Cl)cc(NC(=O)c2cc(-c3ncc(F)cn3)n(C)c2)c1 [Example 542] | 73 | 30
54 | Cc1cc(C(=O)Nc2cc(Cl)cc(NS(C)(=O)=O)c2)cn1-c1ccc(N2CCN(C(=O)N(C)C)CC2)cn1 [Example 284] | 79.6% | 4.1
55 | Cc1cc(C(=O)Nc2cc(Cl)cc(NS(C)(=O)=O)c2)cn1-c1ncc(F)cc1F [Example 444] | 72.9 | 39.1
56 | CS(=O)(=O)Nc1cc(Cl)cc(NC(=O)c2cc3c(Cl)cccc3s2)c1 [Example 332] | 61.5% | 4830

Reference: patent US20240316047A1, “INHIBITORS OF RNA HELICASE DHX9 AND USES THEREOF” (ACCENT THERAPEUTICS, INC., priority 2022, published 2024)
